Measured values from ChEMBL document CHEMBL4507308 (2021).
The source made the active and inactive calls. No cut-off for these calls is given here.

How the values were obtained:
[1] = molecular target: 5-hydroxytryptamine receptor 5A (Homo sapiens) (UniProt P47898); conditions: Compound concentration 10.0 uM
[2] = molecular target: Beta-2 adrenergic receptor (Homo sapiens) (UniProt P07550); conditions: Compound concentration 10.0 uM
[3] = molecular target: 5-hydroxytryptamine receptor 2C (Homo sapiens) (UniProt P28335); conditions: Compound concentration 10.0 uM
[4] = molecular target: 5-hydroxytryptamine receptor 2A (Homo sapiens) (UniProt P28223); conditions: Compound concentration 10.0 uM
Chain of 5-hydroxytryptamine receptor 2A (Homo sapiens) (P28223 whole entry): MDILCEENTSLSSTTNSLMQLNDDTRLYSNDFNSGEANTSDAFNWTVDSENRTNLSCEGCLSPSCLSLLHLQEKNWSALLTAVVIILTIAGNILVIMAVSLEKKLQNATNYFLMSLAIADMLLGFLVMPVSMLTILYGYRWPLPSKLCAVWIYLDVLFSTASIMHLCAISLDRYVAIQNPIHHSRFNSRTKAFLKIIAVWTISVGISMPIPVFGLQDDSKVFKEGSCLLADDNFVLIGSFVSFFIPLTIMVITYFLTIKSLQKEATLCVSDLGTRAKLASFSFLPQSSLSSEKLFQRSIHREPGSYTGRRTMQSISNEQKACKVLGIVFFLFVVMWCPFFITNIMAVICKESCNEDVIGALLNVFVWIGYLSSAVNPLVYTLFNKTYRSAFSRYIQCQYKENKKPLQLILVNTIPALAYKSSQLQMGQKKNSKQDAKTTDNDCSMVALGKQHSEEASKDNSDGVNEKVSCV

[5] = molecular target: D(1B) dopamine receptor (Homo sapiens) (UniProt P21918); conditions: Compound concentration 10.0 uM
TGF-beta receptor type-1 = TGF-beta receptor type-1 (Homo sapiens, UniProt P36897); test: NanoBRET (SGC Frankfurt) (TGFBR1)
[6] = molecular target: 5-hydroxytryptamine receptor 1A (Homo sapiens) (UniProt P08908); conditions: Compound concentration 10.0 uM
[7] = molecular target: Alpha-2B adrenergic receptor (Homo sapiens) (UniProt P18089); conditions: Compound concentration 10.0 uM
[8] = molecular target: Beta-1 adrenergic receptor (Homo sapiens) (UniProt P08588); conditions: Compound concentration 10.0 uM
[9] = molecular target: Alpha-1D adrenergic receptor (Homo sapiens) (UniProt P25100); conditions: Compound concentration 10.0 uM
[10] = molecular target: D(2) dopamine receptor (Homo sapiens) (UniProt P14416); conditions: Compound concentration 10.0 uM
[11] = molecular target: 5-hydroxytryptamine receptor 1B (Homo sapiens) (UniProt P28222); conditions: Compound concentration 10.0 uM
Chain of 5-hydroxytryptamine receptor 1B (Homo sapiens) (P28222 whole entry): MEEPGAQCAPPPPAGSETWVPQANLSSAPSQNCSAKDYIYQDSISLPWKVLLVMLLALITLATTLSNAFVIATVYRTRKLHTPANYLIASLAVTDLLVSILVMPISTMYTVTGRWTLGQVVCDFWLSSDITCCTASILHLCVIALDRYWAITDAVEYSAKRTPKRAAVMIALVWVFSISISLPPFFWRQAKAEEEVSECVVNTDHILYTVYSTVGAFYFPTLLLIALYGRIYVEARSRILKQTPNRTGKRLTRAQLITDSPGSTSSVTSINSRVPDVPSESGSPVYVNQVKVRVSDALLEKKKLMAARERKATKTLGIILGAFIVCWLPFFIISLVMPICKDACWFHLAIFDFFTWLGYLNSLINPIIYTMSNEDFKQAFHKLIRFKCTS

[12] = molecular target: Sodium-dependent serotonin transporter (Homo sapiens) (UniProt P31645); conditions: Compound concentration 10.0 uM
[13] = molecular target: Muscarinic acetylcholine receptor M1 (Homo sapiens) (UniProt P11229); conditions: Compound concentration 10.0 uM
[14] = molecular target: 5-hydroxytryptamine receptor 6 (Homo sapiens) (UniProt P50406); conditions: Compound concentration 10.0 uM
[15] = molecular target: Alpha-1B adrenergic receptor (Homo sapiens) (UniProt P35368); conditions: Compound concentration 10.0 uM
[16] = molecular target: GABA-A receptor; anion channel; test: GPCRScan assay: inhibition of GABAA/BZP; type: protein-complex assay, Rattus norvegicus; design: radioligand conc. used [nm] 0.6 – 4.0, parental cells brain tissue
[17] = molecular target: Muscarinic acetylcholine receptor M5 (Homo sapiens) (UniProt P08912); conditions: Compound concentration 10.0 uM
[18] = molecular target: 5-hydroxytryptamine receptor 3A (Homo sapiens) (UniProt P46098); conditions: Compound concentration 10.0 uM
Chain of 5-hydroxytryptamine receptor 3A (Homo sapiens) (P46098 whole entry): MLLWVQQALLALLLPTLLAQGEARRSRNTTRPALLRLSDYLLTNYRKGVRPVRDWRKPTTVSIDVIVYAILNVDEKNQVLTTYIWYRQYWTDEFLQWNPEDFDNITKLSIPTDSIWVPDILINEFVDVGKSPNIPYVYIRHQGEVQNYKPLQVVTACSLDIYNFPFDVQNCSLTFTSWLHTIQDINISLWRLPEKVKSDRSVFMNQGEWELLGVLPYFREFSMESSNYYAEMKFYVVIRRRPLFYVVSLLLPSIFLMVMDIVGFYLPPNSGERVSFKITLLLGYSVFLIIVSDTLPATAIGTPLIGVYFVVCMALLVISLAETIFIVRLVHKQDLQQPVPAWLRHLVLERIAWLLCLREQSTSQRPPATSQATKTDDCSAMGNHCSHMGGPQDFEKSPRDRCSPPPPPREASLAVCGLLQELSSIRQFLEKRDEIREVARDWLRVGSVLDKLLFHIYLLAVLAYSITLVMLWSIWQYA

[19] = molecular target: Muscarinic acetylcholine receptor M4 (Homo sapiens) (UniProt P08173); conditions: Compound concentration 10.0 uM
[20] = molecular target: 5-hydroxytryptamine receptor 7 (Homo sapiens) (UniProt P34969); conditions: Compound concentration 10.0 uM
[21] = molecular target: D(4) dopamine receptor (Homo sapiens) (UniProt P21917); conditions: Compound concentration 10.0 uM
[22] = molecular target: Beta-3 adrenergic receptor (Homo sapiens) (UniProt P13945); conditions: Compound concentration 10.0 uM
[23] = molecular target: Sigma intracellular receptor 2 (Homo sapiens) (UniProt Q5BJF2); conditions: Compound concentration 10.0 uM
Chain of Sigma intracellular receptor 2 (Homo sapiens) (Q5BJF2 whole entry): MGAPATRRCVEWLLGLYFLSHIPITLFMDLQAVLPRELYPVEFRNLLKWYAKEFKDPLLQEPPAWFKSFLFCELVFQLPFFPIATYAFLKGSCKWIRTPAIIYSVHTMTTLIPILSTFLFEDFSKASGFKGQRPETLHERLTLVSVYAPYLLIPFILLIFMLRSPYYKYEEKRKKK

[24] = molecular target: Alpha-1A adrenergic receptor (Homo sapiens) (UniProt P35348); conditions: Compound concentration 10.0 uM
Chain of Alpha-1A adrenergic receptor (Homo sapiens) (P35348 whole entry): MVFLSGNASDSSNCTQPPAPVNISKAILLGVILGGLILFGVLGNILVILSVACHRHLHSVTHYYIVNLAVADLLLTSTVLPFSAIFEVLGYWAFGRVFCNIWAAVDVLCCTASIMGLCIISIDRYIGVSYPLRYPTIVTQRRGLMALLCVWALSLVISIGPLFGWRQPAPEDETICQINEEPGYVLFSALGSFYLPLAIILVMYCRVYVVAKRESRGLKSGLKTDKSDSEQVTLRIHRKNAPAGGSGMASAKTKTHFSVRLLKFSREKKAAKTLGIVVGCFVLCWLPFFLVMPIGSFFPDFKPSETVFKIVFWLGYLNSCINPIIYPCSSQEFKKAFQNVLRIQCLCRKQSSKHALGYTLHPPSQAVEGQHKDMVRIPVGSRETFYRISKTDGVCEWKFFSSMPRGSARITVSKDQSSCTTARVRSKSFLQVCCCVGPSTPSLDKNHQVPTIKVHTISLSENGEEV

[25] = molecular target: T1, GABA-A receptor; anion channel (Rattus norvegicus) (UniProt O09028+P15431+P18506+P18508+P19969+P20236+P23574+P23576+P28471+P28473+P30191+P62813+P63079+P63138+Q91ZM7+Q9ES14); conditions: Compound concentration 10.0 uM
[26] = molecular target: Histamine H1 receptor (Homo sapiens) (UniProt P35367); conditions: Compound concentration 10.0 uM
[27] = molecular target: T2, 5-hydroxytryptamine receptor 2B (Homo sapiens, UniProt P41595); conditions: Compound concentration 10.0 uM
T2 sequence (P41595 whole entry): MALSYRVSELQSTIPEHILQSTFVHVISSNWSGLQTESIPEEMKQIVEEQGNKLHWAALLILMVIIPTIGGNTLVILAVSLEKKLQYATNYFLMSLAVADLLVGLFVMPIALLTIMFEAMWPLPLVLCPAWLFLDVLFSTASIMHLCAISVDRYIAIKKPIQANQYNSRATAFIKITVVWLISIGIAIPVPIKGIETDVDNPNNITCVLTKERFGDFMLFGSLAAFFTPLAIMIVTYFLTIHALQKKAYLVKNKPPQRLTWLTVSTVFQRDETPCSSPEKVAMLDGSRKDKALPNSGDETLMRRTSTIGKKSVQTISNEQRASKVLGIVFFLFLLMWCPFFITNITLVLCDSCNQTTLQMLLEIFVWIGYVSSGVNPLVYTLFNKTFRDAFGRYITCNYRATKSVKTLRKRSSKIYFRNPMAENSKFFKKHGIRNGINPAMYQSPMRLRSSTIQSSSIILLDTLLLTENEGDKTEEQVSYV

[28] = molecular target: Histamine H3 receptor (Homo sapiens) (UniProt Q9Y5N1); conditions: Compound concentration 10.0 uM
Chain of Histamine H3 receptor (Homo sapiens) (Q9Y5N1 whole entry): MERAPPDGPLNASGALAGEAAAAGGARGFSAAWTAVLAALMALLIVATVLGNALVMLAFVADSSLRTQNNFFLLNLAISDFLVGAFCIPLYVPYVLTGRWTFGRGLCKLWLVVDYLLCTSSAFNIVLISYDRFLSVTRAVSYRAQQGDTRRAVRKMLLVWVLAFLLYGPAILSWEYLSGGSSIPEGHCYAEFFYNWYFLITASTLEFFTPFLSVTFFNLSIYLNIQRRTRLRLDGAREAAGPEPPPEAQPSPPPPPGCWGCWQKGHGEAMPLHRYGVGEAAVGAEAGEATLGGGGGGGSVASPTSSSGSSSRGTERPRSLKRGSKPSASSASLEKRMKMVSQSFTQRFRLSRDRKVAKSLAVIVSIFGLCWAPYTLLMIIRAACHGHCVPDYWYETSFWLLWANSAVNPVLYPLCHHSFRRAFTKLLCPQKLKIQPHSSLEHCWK

Rattus norvegicus = species on record: Rattus norvegicus; conditions: Compound concentration 10.0 uM
[29] = molecular target: Alpha-2C adrenergic receptor (Homo sapiens) (UniProt P18825); conditions: Compound concentration 10.0 uM
Chain of Alpha-2C adrenergic receptor (Homo sapiens) (P18825 whole entry): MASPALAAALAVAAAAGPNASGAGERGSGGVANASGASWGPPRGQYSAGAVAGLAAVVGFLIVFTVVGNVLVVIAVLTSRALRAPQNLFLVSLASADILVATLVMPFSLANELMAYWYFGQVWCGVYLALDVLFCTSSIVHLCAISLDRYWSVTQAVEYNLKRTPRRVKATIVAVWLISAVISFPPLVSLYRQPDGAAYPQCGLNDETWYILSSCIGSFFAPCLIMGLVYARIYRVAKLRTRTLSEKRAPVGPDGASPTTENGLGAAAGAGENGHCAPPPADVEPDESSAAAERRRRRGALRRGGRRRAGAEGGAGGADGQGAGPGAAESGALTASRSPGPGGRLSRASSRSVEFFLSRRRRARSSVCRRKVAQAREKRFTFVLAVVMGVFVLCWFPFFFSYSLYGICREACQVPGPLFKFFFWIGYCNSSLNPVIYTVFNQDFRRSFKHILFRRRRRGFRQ

[30] = molecular target: T2, 5-hydroxytryptamine receptor 2B; test: GPCRScan assay: inhibition of 5-HT2B; design: radioligand conc. used [nm] 1.0 – 2.0, parental cells stable HEK
Activin receptor type-1B [31] = molecular target: T3, Activin receptor type-1B (Homo sapiens, UniProt P36896); test: NanoBRET (SGC Frankfurt) (ACVR1B)
T3 sequence (P36896 whole entry): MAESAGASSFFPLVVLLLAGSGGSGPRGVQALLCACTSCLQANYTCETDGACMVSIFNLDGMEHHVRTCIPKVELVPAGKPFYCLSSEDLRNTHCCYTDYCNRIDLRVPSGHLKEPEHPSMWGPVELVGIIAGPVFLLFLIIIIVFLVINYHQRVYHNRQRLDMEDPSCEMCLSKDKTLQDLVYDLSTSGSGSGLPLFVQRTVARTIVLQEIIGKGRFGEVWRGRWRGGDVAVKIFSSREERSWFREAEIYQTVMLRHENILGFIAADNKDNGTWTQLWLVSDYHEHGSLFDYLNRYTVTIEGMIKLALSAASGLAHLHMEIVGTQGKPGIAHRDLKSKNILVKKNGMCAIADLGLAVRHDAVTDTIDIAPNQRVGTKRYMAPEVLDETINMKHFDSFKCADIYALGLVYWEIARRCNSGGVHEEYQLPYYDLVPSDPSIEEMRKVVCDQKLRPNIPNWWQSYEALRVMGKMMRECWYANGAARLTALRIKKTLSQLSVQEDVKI

[32] = molecular target: D(1A) dopamine receptor (Homo sapiens) (UniProt P21728); conditions: Compound concentration 10.0 uM
[33] = molecular target: Muscarinic acetylcholine receptor M2 (Homo sapiens) (UniProt P08172); conditions: Compound concentration 10.0 uM
[34] = molecular target: T4, Sodium-dependent dopamine transporter (Homo sapiens, UniProt Q01959); conditions: Compound concentration 10.0 uM
T4 sequence (Q01959 whole entry): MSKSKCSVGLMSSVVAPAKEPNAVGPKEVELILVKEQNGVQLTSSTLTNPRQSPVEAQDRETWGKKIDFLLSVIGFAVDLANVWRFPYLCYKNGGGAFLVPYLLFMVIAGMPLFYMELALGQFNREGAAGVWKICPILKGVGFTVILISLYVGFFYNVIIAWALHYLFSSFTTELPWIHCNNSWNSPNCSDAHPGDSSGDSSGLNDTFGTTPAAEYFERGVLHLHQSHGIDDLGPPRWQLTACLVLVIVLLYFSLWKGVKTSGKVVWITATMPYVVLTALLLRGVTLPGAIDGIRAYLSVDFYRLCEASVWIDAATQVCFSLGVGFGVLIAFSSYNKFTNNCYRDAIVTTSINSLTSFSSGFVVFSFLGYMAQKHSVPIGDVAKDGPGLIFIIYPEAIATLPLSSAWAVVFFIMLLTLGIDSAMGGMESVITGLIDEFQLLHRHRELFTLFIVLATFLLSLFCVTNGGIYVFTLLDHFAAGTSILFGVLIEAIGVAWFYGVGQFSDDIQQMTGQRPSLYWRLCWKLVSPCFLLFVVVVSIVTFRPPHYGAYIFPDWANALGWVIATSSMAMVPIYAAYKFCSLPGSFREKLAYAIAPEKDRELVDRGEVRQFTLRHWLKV

[35] = molecular target: Muscarinic acetylcholine receptor M3 (Homo sapiens) (UniProt P20309); conditions: Compound concentration 10.0 uM
Chain of Muscarinic acetylcholine receptor M3 (Homo sapiens) (P20309 whole entry, looked up): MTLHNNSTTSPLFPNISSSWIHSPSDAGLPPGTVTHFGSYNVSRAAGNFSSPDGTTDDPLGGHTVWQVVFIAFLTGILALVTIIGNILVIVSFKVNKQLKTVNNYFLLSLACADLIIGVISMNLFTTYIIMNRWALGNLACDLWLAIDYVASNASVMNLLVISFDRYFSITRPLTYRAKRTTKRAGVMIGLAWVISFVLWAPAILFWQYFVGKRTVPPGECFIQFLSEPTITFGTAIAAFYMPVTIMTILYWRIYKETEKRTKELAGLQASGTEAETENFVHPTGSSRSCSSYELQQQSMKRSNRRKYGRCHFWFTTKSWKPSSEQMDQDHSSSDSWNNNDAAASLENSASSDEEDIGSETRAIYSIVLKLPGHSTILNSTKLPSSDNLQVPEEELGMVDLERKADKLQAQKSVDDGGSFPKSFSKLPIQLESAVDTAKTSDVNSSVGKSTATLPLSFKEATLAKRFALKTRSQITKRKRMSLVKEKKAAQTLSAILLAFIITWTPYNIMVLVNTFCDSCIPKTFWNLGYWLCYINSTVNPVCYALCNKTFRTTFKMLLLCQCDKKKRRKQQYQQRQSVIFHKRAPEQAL

[36] = molecular target: Alpha-2A adrenergic receptor (Homo sapiens) (UniProt P08913); conditions: Compound concentration 10.0 uM
[37] = molecular target: 5-hydroxytryptamine receptor 1D (Homo sapiens) (UniProt P28221); conditions: Compound concentration 10.0 uM
[38] = molecular target: Calcium/calmodulin-dependent protein kinase type 1B (Homo sapiens, UniProt Q6P2M8); test: NanoBRET (SGC Frankfurt) (PNCK)
[39] = molecular target: T1, GABA-A receptor; anion channel (Rattus norvegicus); conditions: Compound concentration 10.0 uM; remark: listed apart in the source
[40] = molecular target: 5-hydroxytryptamine receptor 1E (Homo sapiens) (UniProt P28566); conditions: Compound concentration 10.0 uM
[41] = molecular target: T4, Sodium-dependent dopamine transporter; test: GPCRScan assay: inhibition of DAT; design: radioligand conc. used [nm] 3.6 – 16.0, parental cells stable HEK
Activin receptor type-1B [42] = molecular target: T3, Activin receptor type-1B; test: Lathascreen (Takeda) (ACVR1B)
[43] = molecular target: Epithelial discoidin domain-containing receptor 1 (Homo sapiens, UniProt Q08345); test: NanoBRET (SGC Frankfurt) (DDR1)
Activin receptor type-1B [44] = molecular target: T3, Activin receptor type-1B; test: Reporter gene assay (ACVR1B)
[45] = molecular target: D(3) dopamine receptor (Homo sapiens) (UniProt P35462); conditions: Compound concentration 10.0 uM
[46] = molecular target: Tyrosine-protein kinase JAK1 (Homo sapiens, UniProt P23458); test: NanoBRET (SGC Frankfurt) (JAK1)
[47] = molecular target: Histamine H4 receptor (Homo sapiens) (UniProt Q9H3N8); conditions: Compound concentration 10.0 uM
[48] = molecular target: Histamine H2 receptor (Homo sapiens) (UniProt P25021); conditions: Compound concentration 10.0 uM
Activin receptor type-1B [49] = molecular target: T3, Activin receptor type-1B; test: Radioactive kinase assay (ACVR1B)
[50] = molecular target: Phosphatidylinositol 4,5-bisphosphate 3-kinase catalytic subunit alpha isoform (Homo sapiens, UniProt P42336); test: NanoBRET (SGC Frankfurt) (PIK3CA)

Chain of 5-hydroxytryptamine receptor 5A (Homo sapiens) (P47898 whole entry): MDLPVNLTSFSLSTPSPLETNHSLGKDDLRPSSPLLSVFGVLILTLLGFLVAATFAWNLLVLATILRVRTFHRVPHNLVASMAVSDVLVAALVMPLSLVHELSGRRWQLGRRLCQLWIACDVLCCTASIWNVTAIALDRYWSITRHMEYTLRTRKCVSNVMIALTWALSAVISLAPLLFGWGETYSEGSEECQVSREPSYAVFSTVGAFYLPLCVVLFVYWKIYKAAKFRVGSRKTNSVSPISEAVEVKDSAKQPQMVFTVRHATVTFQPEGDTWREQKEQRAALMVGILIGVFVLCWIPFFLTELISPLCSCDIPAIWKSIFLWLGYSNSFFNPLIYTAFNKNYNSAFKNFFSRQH

For `Cc1cnc(-c2cc(Cl)ccc2F)cc1-n1c(=O)n(CC(N)=O)c2ccccc21` [Al11], the inhibition [1] was -0.66%, the inhibition [2] was 16.7% and the inhibition [3] was 10.2%. The inhibition [4] was 11.2%, the inhibition [5] was 6.12% and the IC50 (TGF-beta receptor type-1) was > 10 µM (not active). For the same molecule, the inhibition [6] was 12%, the inhibition [7] was 17.3% and the inhibition [8] was 25.8%. For the same molecule, the inhibition [9] was 2.71%, the inhibition [10] was -1.99% and the inhibition [11] was -7.07%. The inhibition [12] was 14.3%, the inhibition [13] was -1.17% and the inhibition [14] was 14.1%. It also gave an inhibition [15] of 5.45%, a Ki [16] of 2.75 µM and an inhibition [17] of 1.56%. The inhibition [18] was 19.9%, the inhibition [19] was 3.09% and the inhibition [20] was 12.1%. It also gave an inhibition [21] of -1.38%, an inhibition [22] of 9.94% and an inhibition [23] of 41.6%. The inhibition [24] was 0.25%, the inhibition [25] was 50.2% and the inhibition [26] was -2.43%. The inhibition [27] was 72%, the inhibition [28] was -8.16% and the inhibition (Rattus norvegicus) was 27.1%. It also gave an inhibition [29] of 17.9%, a Ki ([30]; read-out: Ki) of 1.59 µM and a Ki ([30]; read-out: pKi (converted)) of 1.57 µM. For the same molecule, the IC50 (Activin receptor type-1B [31]) was > 10 µM (not active), the inhibition [32] was -2.08% and the inhibition [33] was 14.4%. It also gave an inhibition [34] of -4.34%, an inhibition [35] of -5.28% and an inhibition [36] of 3.1%.
`Cc1cnc(-c2cc(Cl)ccc2F)cc1-n1c(=O)n(CC(N)=O)c2cnccc21` [TP-008] was tested, and the inhibition [37] was 5.53%, the IC50 [38] was > 20 µM (not active) and the inhibition [1] was 16.8%. The inhibition [2] was 13.9%, the inhibition [39] was 27.3% and the inhibition [3] was 15.5%. For the same molecule, the inhibition [4] was -0.869%, the inhibition [40] was -5.81% and the inhibition [6] was 22.9%. It also gave an inhibition [7] of 18.1%, an inhibition [10] of -5.48% and an inhibition [11] of 19.5%. For the same molecule, the inhibition [12] was 3.84%, the inhibition [13] was -3.81% and the inhibition [14] was -4.28%. For the same molecule, the Ki [41] was 10 µM, the pKi [41] was 5 and the inhibition [15] was 3.76%. For the same molecule, the inhibition [17] was -5.69%, the IC50 (Activin receptor type-1B [42]) was 1 µM (active) and the inhibition [18] was -6.36%. The IC50 [43] was > 20 µM (not active), the IC50 (Activin receptor type-1B [44]) was 0.526 µM (active) and the inhibition [45] was 2.27%. The IC50 [46] was > 20 µM (not active), the inhibition [19] was -3.08% and the inhibition [47] was 26.6%. For the same molecule, the inhibition [20] was 3.98%, the inhibition [21] was 5.41% and the inhibition [22] was 3.94%. The inhibition [23] was -2.75%, the inhibition [24] was -2.17% and the inhibition [25] was 31.8%. The inhibition [26] was 0.849%, the inhibition [48] was 6.53% and the IC50 (Activin receptor type-1B [49]) was 0.126 µM (active). It also gave an inhibition [27] of 70.5%, an inhibition [28] of 30.5% and an inhibition (Rattus norvegicus) of -8.98%. The inhibition [29] was -5.16%, the Ki ([30]; read-out: Ki) was 1.88 µM and the inhibition [32] was 12.9%. The IC50 [50] was > 20 µM (not active), the inhibition [33] was 2.23% and the inhibition [34] was 87.6%. For the same molecule, the inhibition [35] was -7.48% and the inhibition [36] was -0.767%.
